Source: patent publication US20240382511A1, “NICOTINAMIDE MONONUCLEOTIDE DERIVATIVES AND USE THEREOF FOR THE TREATMENT OF HEART FAILURE WITH PRESERVED EJECTION FRACTION” (NUVAMID SA, priority 2021, published 2024)

Tests used:
Type in all cases: in vivo, hamster (Golden Syrian)
[1] = tested on: free choice fed hamsters (diet-induced NASH hamster model of HFpEF); experiment: Body weight, food and water intake in diet-induced NASH hamster model of HFpEF; details: treatment once a day per os from week 15, 5 weeks (compound 001 600 mg/kg, vardenafil 10 mg/kg), FIG. 5
Description: (§1) Animals. Male hamsters (Golden Syrian), 4-week-old at receipt, were acclimated at least 5 days before the beginning of the study. Control animals were fed with a chow diet with normal tap water. For diet-induced NASH model, animals were fed with a free choice diet consisting of (a) a chow diet with normal water and (b) a high fat/cholesterol diet with 10% fructose enriched tap water. Food and water intake have been measured once a week. Dosage regimen and test groups. Animals were divided into 5 groups: [table] The study was conducted over 20 weeks. Treatments were administered from week 15 until the end of the experiment (duration 5 weeks), once a day, per os, at a rate of 10 ml/kg. Water was used as vehicle. Vardenafil was used as reference compound. Data analysis. All graphs represent means±standard error of mean (sem). Statistical analysis has been performed using GraphPad Prism 5 software. Single comparisons were made using Student's unpaired t-test or Mann Whitney in case of significant variance. […] During 20 weeks of diet including 5 weeks under treatment with vehicle, compound 001, vardenafil or both, body weight, food and water intake were recorded once a week. Blood was collected at week 14 and week 20 to measure plasma insulin, glucose and ALT/AST, and NT-pro BNP level was evaluated at week 20. Echocardiographic studies were assessed at week 14 and week 20. […]

[2] = tested on: free choice fed hamsters (diet-induced NASH hamster model of HFpEF); experiment: Echocardiography (left ventricular function and dimensions) in diet-induced NASH hamster model of HFpEF; details: for cardiac parameters (overall conclusion): diet-induced NASH hamster model, end of 5-week treatment period
Description: Animals. Male hamsters (Golden Syrian), 4-week-old at receipt, were acclimated at least 5 days before the beginning of the study. Control animals were fed with a chow diet with normal tap water. For diet-induced NASH model, animals were fed with a free choice diet consisting of (a) a chow diet with normal water and (b) a high fat/cholesterol diet with 10% fructose enriched tap water. Food and water intake have been measured once a week. Dosage regimen and test groups. Animals were divided into 5 groups: [table] The study was conducted over 20 weeks. Treatments were administered from week 15 until the end of the experiment (duration 5 weeks), once a day, per os, at a rate of 10 ml/kg. Water was used as vehicle. Vardenafil was used as reference compound. Echocardiography. Left ventricular function and dimensions were assessed 14 and 20 weeks after the start of diet using two-dimensional echocardiograph (VF16-5 probe, Siemens, Acuson NX3 Elite). Numeric images of the heart were obtained in parasternal long and short-axis views using or not time motion for systolic function and in apical four chambers view with doppler mode for diastolic function. Heart rate, left ventricular end-diastolic and end-systolic diameters and volumes, as well as posterior and anterior wall thicknesses in diastole and systole, mitral flow velocity (E and A waves), the isovolumic relaxation time (IVRT), and annular tissue velocity of the mitral valve (e′ and a′ peaks) were measured. Left ventricular ejection fraction, fractional shortening, E/A ratio and E/E′ ratio were then calculated. Data analysis. All graphs represent means±standard error of mean (sem). Statistical analysis has been performed using GraphPad Prism 5 software. Single comparisons were made using Student's unpaired t-test or Mann Whitney in case of significant variance. Multiple comparisons have been carried out with two-way ANOVA followed by post-hoc Bonferroni test or one-way ANOVA followed by post-hoc Dunnett or Kruskall-Wallis test in case of significant variance. For all tests, p<0.05 was considered significant.

[3] = tested on: free choice fed hamsters (diet-induced NASH hamster model of HFpEF); experiment: Biochemical analysis (glucose, plasma insulin, ALT/AST, NT pro-BNP) in diet-induced NASH hamster model of HFpEF
Description: Animals. Male hamsters (Golden Syrian), 4-week-old at receipt, were acclimated at least 5 days before the beginning of the study. Control animals were fed with a chow diet with normal tap water. For diet-induced NASH model, animals were fed with a free choice diet consisting of (a) a chow diet with normal water and (b) a high fat/cholesterol diet with 10% fructose enriched tap water. Food and water intake have been measured once a week. Dosage regimen and test groups. Animals were divided into 5 groups: [table] The study was conducted over 20 weeks. Treatments were administered from week 15 until the end of the experiment (duration 5 weeks), once a day, per os, at a rate of 10 ml/kg. Water was used as vehicle. Vardenafil was used as reference compound. Biochemical analysis. After 14 and 20 weeks of diet, blood was collected through tail vein, saphenous vein or retro orbital sinus after a 6 h fasting period to measure respectively glucose, plasma insulin and ALT/AST. After 20 weeks of diet, blood was collected and centrifuged to obtain plasma which was used to measure NT pro-BNP in plasma. Data analysis. All graphs represent means±standard error of mean (sem). Statistical analysis has been performed using GraphPad Prism 5 software. Single comparisons were made using Student's unpaired t-test or Mann Whitney in case of significant variance. Multiple comparisons have been carried out with two-way ANOVA followed by post-hoc Bonferroni test or one-way ANOVA followed by post-hoc Dunnett or Kruskall-Wallis test in case of significant variance. For all tests, p<0.05 was considered significant.

[4] = tested on: free choice fed hamsters (diet-induced NASH hamster model of HFpEF); experiment: Organ weights (heart, liver, lungs), normalized or not to tibia length, in diet-induced NASH hamster model of HFpEF; details: normalized to tibia length; after 20 weeks of diet including 5 weeks of treatment per os (compound 001 600 mg/kg, vardenafil 10 mg/kg); FIG. 11
Description: as §1

NC(=O)c1ccc[n+]([C@@H]2O[C@H](COP(=O)([O-])O)[C@@H](O)[C@H]2O)c1 [compound 001, nicotinamide mononucleotide]
body weight / body weight gain [1]: significant decrease in body weight
cardiac parameters (overall conclusion) [2]: improved most of cardiac parameters
cardiac parameters (overall conclusion) ([2]; listed as NMN): improve cardiac parameters
diastolic function ([2]; echocardiography after 20 weeks of diet including 5 weeks of treatment per os (compound 001 600 mg/kg, vardenafil 10 mg/kg)): improved diastolic function
E/A ratio ([2]; echocardiography after 20 weeks of diet including 5 weeks of treatment per os (compound 001 600 mg/kg, vardenafil 10 mg/kg), vs free choice vehicle, FIG. 8A): significant decrease in E/A ratio
E′/A′ ratio ([2]; echocardiography after 20 weeks of diet including 5 weeks of treatment per os (compound 001 600 mg/kg, vardenafil 10 mg/kg), vs free choice vehicle, FIG. 8B): increased E′/A′ ratio
E/E′ ratio ([2]; echocardiography after 20 weeks of diet including 5 weeks of treatment per os (compound 001 600 mg/kg, vardenafil 10 mg/kg), vs free choice vehicle, FIG. 8D): E/E′ ratio decreased
isovolumic relaxation time (IVRT) ([2]; echocardiography after 20 weeks of diet including 5 weeks of treatment per os (compound 001 600 mg/kg, vardenafil 10 mg/kg), vs free choice vehicle, FIG. 8E): increased to normal levels
plasma insulin levels ([3]; week 20, after 5 weeks of treatment per os (compound 001 600 mg/kg, vardenafil 10 mg/kg), FIG. 9C): tended to increase plasma insulin levels
HOMA-IR index ([3]; week 20, after 5 weeks of treatment per os (compound 001 600 mg/kg, vardenafil 10 mg/kg), FIG. 9E): tended to increase plasma insulin levels and HOMA-IR index
plasma AST ([3]; week 20, after 5 weeks of treatment per os, 600 mg/kg, FIG. 9B): tendency to restore plasma AST
lung oedema (difference between wet and dry lung weight) [4]: non significantly reduced
